The results in this text go back to ChEMBL document CHEMBL2384927, “Development of Unsymmetrical Dyads As Potent Noncarbohydrate-Based Inhibitors against Human β-N-Acetyl-d-hexosaminidase” (ACS Med Chem Lett, 2013).

Structures are written as SMILES. The source made the active and inactive calls. The rule behind the calls is not given here. A value given as a limit tells only on which side of the number the result lay.

The first test deals with T1, Beta-N-acetyl-D-hexosaminidase-A/B (Homo sapiens) (UniProt P07686+P06865). Kind of test: Inhibition of human beta-N-acetyl-D-hexosaminidase-A/B using 4-Methylumbelliferyl N-acetyl-beta-D-glucosaminide as substrate at 50 uM incubated for 10 mins prior to substrate addition by spectrofluorometric analysis relative to control. Type of test: protein assay.
`O=C1c2cccc3cccc(c23)C(=O)N1CCNCCOc1ccc(Cl)cc1` had an inhibition of under 50%.

`COc1ccc(SCCCNCCN2C(=O)c3cccc4cccc(c34)C2=O)cc1` showed an inhibition of under 50%.

Compound `O=C1c2cccc3cccc(c23)C(=O)N1CCNCCOc1ccc([N+](=O)[O-])cc1` yielded an inhibition of under 50%.

`O=C1c2cccc3cccc(c23)C(=O)N1CCNCCOc1ccc(OC(F)(F)F)cc1` gave an inhibition of under 50%.

For the compound `NCCCCCCN1C(=O)c2cccc3cccc(c23)C1=O`, the inhibition was under 50%.

Take `COc1cccc(NCCNCCN2C(=O)c3cccc4cccc(c34)C2=O)c1`: the inhibition was under 50%.

Compound `NCCN1C(=O)c2cccc3cccc1c23` returned an inhibition of under 50%.

The compound `NCCN1C(=O)c2cccc3c(Br)ccc(c23)C1=O` registered an inhibition of under 50%.

`NCCN1C(=O)c2ccccc2C1=O` displayed an inhibition of under 50%.

For the compound `CN(C)c1ccc2c3c(cccc13)C(=O)N(CCN)C2=O`, the inhibition was under 50%.

As to `COc1ccc2c3c(cccc13)C(=O)N(CCN)C2=O`, the inhibition is under 50%.

The target of a further test is T2, Beta-hexosaminidase subunit alpha (Homo sapiens, UniProt P06865).
T2 sequence (P06865 whole entry): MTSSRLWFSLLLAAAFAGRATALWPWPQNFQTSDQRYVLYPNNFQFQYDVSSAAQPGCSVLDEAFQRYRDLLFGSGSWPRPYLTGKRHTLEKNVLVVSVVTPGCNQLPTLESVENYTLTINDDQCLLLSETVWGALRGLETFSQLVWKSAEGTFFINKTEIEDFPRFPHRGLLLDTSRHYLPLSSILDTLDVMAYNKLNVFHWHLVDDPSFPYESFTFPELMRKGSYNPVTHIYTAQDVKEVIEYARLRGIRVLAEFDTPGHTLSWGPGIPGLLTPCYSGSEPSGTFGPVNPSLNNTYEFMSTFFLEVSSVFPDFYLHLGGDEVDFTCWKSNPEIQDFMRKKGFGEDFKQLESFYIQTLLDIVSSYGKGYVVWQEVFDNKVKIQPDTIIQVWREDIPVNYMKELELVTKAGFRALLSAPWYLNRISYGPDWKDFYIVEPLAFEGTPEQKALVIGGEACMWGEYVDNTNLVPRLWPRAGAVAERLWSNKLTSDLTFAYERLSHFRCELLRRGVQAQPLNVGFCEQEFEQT
Kind of test: Competitive inhibition of human beta-N-acetyl-D-hexosaminidase-A using 4-Methylumbelliferyl N-acetyl-beta-D-glucosaminide as substrate assessed as release of 4-Methylumbelliferyl fluorophore measured for 7 mins.
As for `O=C1c2cccc3cccc(c23)C(=O)N1CCNCCN1C(=O)c2cccc3cccc(c23)C1=O`, the IC50 is 6 µM.

The next test deals with T1, Beta-N-acetyl-D-hexosaminidase-A/B (Homo sapiens). Briefly: Competitive inhibition of human beta-N-acetyl-D-hexosaminidase-A/B using 4-Methylumbelliferyl N-acetyl-beta-D-glucosaminide as substrate at 0.1 mM incubated for 10 mins prior to substrate addition by Dixon plot analysis. Format: protein assay.
As to `COc1ccc(CNCCN2C(=O)c3cccc4cccc(c34)C2=O)cc1`, the inhibition result is “Active”.

The target in a further test is T3, Beta-hexosaminidase subunit beta (Homo sapiens, UniProt P07686).
T3 sequence (P07686 whole entry): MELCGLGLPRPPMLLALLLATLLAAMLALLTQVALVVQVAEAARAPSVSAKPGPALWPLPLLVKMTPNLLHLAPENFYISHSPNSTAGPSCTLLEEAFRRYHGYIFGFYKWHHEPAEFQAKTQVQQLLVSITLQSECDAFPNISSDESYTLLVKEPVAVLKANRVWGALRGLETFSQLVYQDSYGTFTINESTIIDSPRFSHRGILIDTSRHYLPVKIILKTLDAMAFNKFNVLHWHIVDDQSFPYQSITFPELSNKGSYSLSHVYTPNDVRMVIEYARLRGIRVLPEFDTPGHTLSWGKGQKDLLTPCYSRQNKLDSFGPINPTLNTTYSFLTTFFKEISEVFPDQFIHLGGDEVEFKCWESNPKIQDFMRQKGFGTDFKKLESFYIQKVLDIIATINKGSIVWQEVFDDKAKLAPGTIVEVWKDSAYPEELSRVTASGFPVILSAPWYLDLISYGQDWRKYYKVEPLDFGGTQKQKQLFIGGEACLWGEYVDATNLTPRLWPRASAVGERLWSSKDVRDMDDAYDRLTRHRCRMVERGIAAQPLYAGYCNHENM
Briefly: Competitive inhibition of human beta-N-acetyl-D-hexosaminidase-B using 4-Methylumbelliferyl N-acetyl-beta-D-glucosaminide as substrate assessed as release of 4-Methylumbelliferyl fluorophore measured for 7 mins.
In the case of `O=C1c2cccc3cccc(c23)C(=O)N1CCNCCN1C(=O)c2cccc3cccc(c23)C1=O`, the IC50 was determined as 3.1 µM.

In the next test the target is T4, Beta-N-acetyl-D-hexosaminidase-A/B (Homo sapiens, UniProt P07686+P06865).
T4 sequence (P07686 whole entry): T3 sequence (P07686 whole entry)
T4 sequence (P06865 whole entry): T2 sequence (P06865 whole entry)
Kind of test: Inhibition of human beta-N-acetyl-D-hexosaminidase-A/B using 4-Methylumbelliferyl N-acetyl-beta-D-glucosaminide as substrate incubated for 10 mins prior to substrate addition by spectrofluorometric analysis. Format: protein assay.
In turn, `COc1ccc(NCCNCCN2C(=O)c3cccc4cccc(c34)C2=O)c(OC)c1` yielded a Ki of 4.63 µM.

Consider `COc1ccc(NCCNCCN2C(=O)c3cccc4cccc(c34)C2=O)cc1`, for which the inhibitory constant (Ki) is 1.08 µM.

`COc1ccc(CNCCN2C(=O)c3cccc4cccc(c34)C2=O)cc1` displayed an inhibition constant (Ki) of 0.63 µM. Compared with the last compound, the Ki is about 1.7-fold lower.

`NCCN1C(=O)c2cccc3cccc(c23)C1=O` registered a Ki of 2.09 µM.

`NCCCN1C(=O)c2cccc3cccc(c23)C1=O` [NAPHTHALIMIDOPROPYLAMINE] yielded an inhibitory constant (Ki) of 29.08 µM.

As for `COc1cccc(OCCNCCN2C(=O)c3cccc4cccc(c34)C2=O)c1`, the inhibition constant (Ki) was 0.93 µM.

In turn, `CN(C)CCN1C(=O)c2cccc3cccc(c23)C1=O` registered an inhibitory constant (Ki) of 2.81 µM.

With `COc1ccc(CNCCN2C(=O)c3cccc4cccc(c34)C2=O)cc1OC`, the inhibition constant (Ki) was found to be 4.99 µM.

Take `COc1ccc(OCCCNCCN2C(=O)c3cccc4cccc(c34)C2=O)cc1`: the Ki came out at 1.23 µM.

`COc1ccccc1OCCNCCN1C(=O)c2cccc3cccc(c23)C1=O` had an inhibitory constant (Ki) of 1.35 µM.

Regarding `O=C1c2cccc3cccc(c23)C(=O)N1CCNCCOc1ccc2c(c1)OCO2`, the Ki turned out to be 3 µM.

On to `COc1ccc(OCCNCCN2C(=O)c3cccc4cccc(c34)C2=O)cc1OC`, for which the Ki was determined as 0.69 µM.

Consider `O=C1c2cccc3cccc(c23)C(=O)N1CCNCCN1C(=O)c2cccc3cccc(c23)C1=O`, for which the Ki turned out to be 3.22 µM.

Compound `COc1cccc(CNCCN2C(=O)c3cccc4cccc(c34)C2=O)c1` showed a Ki of 6.22 µM.

The compound `COc1ccc(SCCNCCN2C(=O)c3cccc4cccc(c34)C2=O)cc1` gave an inhibition constant (Ki) of 1.13 µM.

Take `COC(=O)c1ccc(OCCNCCN2C(=O)c3cccc4cccc(c34)C2=O)cc1`: the Ki was found to be 4.2 µM.

`O=C1c2cccc3cccc(c23)C(=O)N1CCO` had an inhibition constant Ki of 30.87 µM.

As to `COc1ccc(OCCNCCN2C(=O)c3cccc4cccc(c34)C2=O)cc1`, the inhibition constant Ki amounted to 1.04 µM.

Consider `NCCCCN1C(=O)c2cccc3cccc(c23)C1=O`, for which the inhibition constant (Ki) was found to be 61.74 µM. This Ki lies about 59-fold higher than the previous one.

The compound `COc1cccc(OCCCNCCN2C(=O)c3cccc4cccc(c34)C2=O)c1` came in with a Ki of 4.39 µM. This Ki lies about 14-fold lower than the previous one.

In general, inhibition refers to the change of the read-out against control, counted positive when it falls. As usually defined, the IC50 is the concentration at which inhibition is half-maximal. As a reminder, the Ki is the dissociation constant of the complex between target and ligand, obtained from inhibition or displacement. High values mean lower affinity, low ones higher affinity.
